Test results from PubChem BioAssay AID248 (DTP/NCI, 2004).
Several values for one entry are separate records, joined by “and”; a condition that tells them apart may be missing. Equal values may be shown once. Toxic doses and inconclusive results are not listed. No stated cut-off is given here; in the data, active means T/C of 150% or more; inactive means T/C below 125%.

Test system: L1210 leukemia ip in BDF1 mice, survival T/C
Assay: NCI In Vivo Anticancer Drug Screen. Data for tumor model L1210 Leukemia (intraperitoneal) in B6D2F1 (BDF1) mice
Conditions: endpoint: mean survival time, higher = longer survival
Outline: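 Transplantable tumor model; survival measured in treated vs vehicle control mice. Value = treated/control.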

[1] = dose: 50.0 mg/kg/injection, schedule: Q04DX003 (ip), vehicle: saline
[2] = dose: 100.0 mg/kg/injection, schedule: Q04DX003 (ip), vehicle: saline
[3] = dose: 100.0 mg/kg/injection, schedule: Q04DX003 (ip), vehicle: Klucel (hydroxypropylcellulose) (HPC)
[4] = dose: 200.0 mg/kg/injection, schedule: Q04DX003 (ip), vehicle: Klucel (hydroxypropylcellulose) (HPC)
[5] = dose: 400.0 mg/kg/injection, schedule: Q04DX003 (ip), vehicle: Klucel (hydroxypropylcellulose) (HPC)
[6] = dose: 100.0 mg/kg/injection, schedule: Q01DX001 (ip), vehicle: carboxymethylcellulose (CMC)
[7] = dose: 200.0 mg/kg/injection, schedule: Q01DX001 (ip), vehicle: carboxymethylcellulose (CMC)
[8] = dose: 400.0 mg/kg/injection, schedule: Q01DX001 (ip), vehicle: carboxymethylcellulose (CMC)

Measured: T/C

COc1cc(-c2ccc(NC(=O)Nc3ccc(C4=NCCN4)cc3)c(OC)c2)ccc1NC(=O)Nc1ccc(C2=NCCN2)cc1
inactive: dose: 15.0 mg/kg/injection, schedule: Q01DX Z (ip), vehicle: carboxymethylcellulose (CMC) 104 % of control | dose: 31.0 mg/kg/injection, schedule: Q01DX Z (ip), vehicle: carboxymethylcellulose (CMC) 98 % of control | dose: 62.5 mg/kg/injection, schedule: Q01DX Z (ip), vehicle: carboxymethylcellulose (CMC) 117 % of control | dose: 125.0 mg/kg/injection, schedule: Q01DX Z (ip), vehicle: carboxymethylcellulose (CMC) 103 % of control | dose: 250.0 mg/kg/injection, schedule: Q01DX Z (ip), vehicle: water 117 % of control | dose: 500.0 mg/kg/injection, schedule: Q01DX Z (ip), vehicle: water 87 % of control

BrCc1cccc2ccccc12
inactive: dose: 25.0 mg/kg/injection, schedule: Q01DX009 (ip), vehicle: acetone 96 % of control | dose: 50.0 mg/kg/injection, schedule: Q01DX009 (ip), vehicle: acetone 95 % of control | [1] 90 % of control | dose: 100.0 mg/kg/injection, schedule: Q01DX001 (ip), vehicle: saline 98 % of control | dose: 100.0 mg/kg/injection, schedule: Q01DX009 (ip), vehicle: acetone 95 % of control | [2] 87 % of control | dose: 200.0 mg/kg/injection, schedule: Q01DX001 (ip), vehicle: saline 102 % of control

CCCCCCCCCC(=O)NO
inactive: dose: 25.0 mg/kg/injection, schedule: Q04DX003 (ip), vehicle: saline 102 % of control | [1] 98 % of control | dose: 100.0 mg/kg/injection, schedule: Q01DX001 (ip), vehicle: other 97 % of control | dose: 100.0 mg/kg/injection, schedule: Q01DX009 (ip), vehicle: saline 87 % of control | [3] 93 % of control | [2] 86 % of control and 92 % of control | dose: 200.0 mg/kg/injection, schedule: Q01DX001 (ip), vehicle: other 97 % of control | dose: 200.0 mg/kg/injection, schedule: Q01DX009 (ip), vehicle: saline 98 % of control | [4] 93 % of control | dose: 200.0 mg/kg/injection, schedule: Q04DX003 (ip), vehicle: saline 88 % of control | dose: 400.0 mg/kg/injection, schedule: Q01DX001 (ip), vehicle: other 95 % of control | [5] 91 % of control | dose: 400.0 mg/kg/injection, schedule: Q04DX003 (ip), vehicle: saline 86 % of control

Nc1cc2ncccc2c2ncccc12
inactive: dose: 75.0 mg/kg/injection, schedule: Q01DX001 (ip), vehicle: saline 107 % of control | dose: 150.0 mg/kg/injection, schedule: Q01DX001 (ip), vehicle: saline 102 % of control

O=C(NNc1cccc(Cl)c1)C(O)C(O)C(O)C(O)CO (stereo unspecified)
inactive: dose: 50.0 mg/kg/injection, schedule: Q01DX009 (ip), vehicle: saline with Tween-80 107 % of control | dose: 100.0 mg/kg/injection, schedule: Q01DX009 (ip), vehicle: saline with Tween-80 98 % of control | dose: 200.0 mg/kg/injection, schedule: Q01DX009 (ip), vehicle: saline with Tween-80 115 % of control

CC1(CCC#N)CCC(N)=CC1=O (stereo unspecified)
inactive: [6] 96 % of control | [7] 98 % of control | [8] 96 % of control

CCOC(=S)Sc1ccc2c(c1)-c1ccc(F)cc1C2=O
inactive: [6] 111 % of control | [7] 95 % of control | [8] 98 % of control

CCOC(=O)CC1=NCCc2cc(OC)c(OC)cc21
inactive: dose: 25.0 mg/kg/injection, schedule: Q04DX002 (ip), vehicle: Klucel (hydroxypropylcellulose) (HPC) 102 % of control | dose: 50.0 mg/kg/injection, schedule: Q04DX002 (ip), vehicle: Klucel (hydroxypropylcellulose) (HPC) 99 % of control | dose: 100.0 mg/kg/injection, schedule: Q04DX002 (ip), vehicle: Klucel (hydroxypropylcellulose) (HPC) 96 % of control

CCOC(=O)C(NC(N)=O)C(=O)OCC
inactive: dose: 100.0 mg/kg/injection, schedule: Q01DX009 (ip), vehicle: Klucel (hydroxypropylcellulose) (HPC) 95 % of control | [3] 95 % of control | dose: 200.0 mg/kg/injection, schedule: Q01DX009 (ip), vehicle: Klucel (hydroxypropylcellulose) (HPC) 101 % of control | [4] 97 % of control | dose: 400.0 mg/kg/injection, schedule: Q01DX009 (ip), vehicle: Klucel (hydroxypropylcellulose) (HPC) 101 % of control | [5] 104 % of control
